The text below walks through data of patent US20230226072A1 (priority 2020, published 2023).

Series [1] concerns Influenza A N1H1. In words: In vivo antiviral efficacy in Balb/c mice, lung virus titer by TCID50 assay. The procedure: Mice received a daily MB-dose of 5 mg/kg based on a daily drinking volume of ˜5-6 ml and a body weight of 25-35 g. The control group received drinking water with saccharin but without methylene blue.
Mice were euthanized and lungs were removed on day 3 post challenge with influenza H1N1 virus. These tissue samples were stored at <−60° C. until they were transferred into homogenization tubes containing 1 ml cell medium supplemented with antibiotics. The lungs were homogenized two times at 5000 rpm for twenty seconds with 10 seconds pause between the intervals with a tissue homogenizer. The infectious H1N1 virus titer in homogenized lung samples was determined by a TCID50 assay performed by titration on Madin-Darby Canine Kidney (MDCK) cells as described above.

For series [2] the following is noted: in vivo; cited from earlier work.

As to `CN(C)c1ccc2nc3ccc(=[N+](C)C)cc-3sc2c1.[Cl-]` [methylene blue, [7-(dimethylamino)phenothiazin-3-ylidene]-dimethylazanium; chloride], the “viricidal efficacy, lung virus titer (TCID50 assay)” value was “significant viricidal efficacy” in series [1] (prophylactic application, 5 mg/kg daily in drinking water from day 0, challenge day 10, lungs 3 days later) and “significant viricidal efficacy” in series [1] (therapeutic application, 5 mg/kg daily in drinking water from day 11, challenge day 10).
`Cc1cc2nc3c(=O)[nH]c(=O)nc-3n(C[C@H](O)[C@H](O)[C@H](O)CO)c2cc1C` [riboflavin, 7,8-dimethyl-10-[(2S,3S,4R)-2,3,4,5-tetrahydroxypentyl]benzo[g]pteridine-2,4-dione]: in series [2], the initial half-life is recorded as 1.4 h and the terminal half-life is on record as 14 h.
